{"source": "patent US10130590B2", "about": "“Methods of treating cancer with atovaquone-related compounds” (DANA-FARBER CANCER INSTITUTE, INC., priority 2013, dated 2018)", "system": "HEL cells", "assay": "PI cell cycle analysis, HEL", "type": "cell-based", "settings": "25 μM, 24 hours", "protocol": "Annexin V/PI staining was performed using Annexin V:FITC Apoptosis Detection Kit I (BD Biosciences). Staining for cell cycle analysis was performed as previously described (267). Staining for cell-surface receptors was performed in 50 μl PBS+2% FBS with 2 μl antibody to IL6R (BioLegend #352803) or 5 μl antibody to gp130 (BD Biosciences #555757) for 20 minutes on ice in the dark. Cells were washed twice, then resuspended in 300 μl of the same buffer. Samples were analyzed on a BD FACSCanto II machine. Transfection and siRNA Cells were reverse-transfected using Lipofectamine RNAiMAX (Invitrogen); the culture medium was changed 24 hours later. Control siRNA (D-001210-02) and REDD1 siRNA (M-010855-01) were from Thermo Scientific Dharmacon. Additionally, it was hypothesized atovaquone inhibits proliferation by disrupting cell cycle progression. […] In summary, atovaquone inhibits constitutive STAT3 activation and target gene expression in cancer cells, and reduces their survival and proliferation."}
{"smiles": "O=C1C(O)=C([C@H]2CC[C@H](c3ccc(Cl)cc3)CC2)C(=O)c2ccccc21", "note": "[atovaquone, trans-2-[4-(4-chlorophenyl)cyclohexyl]-3-hydroxy-1,4-naphthalenedione]", "values": [{"measurement": "population of cells in G2/M", "value": "decreased the population of cells in G2/M"}, {"measurement": "proportion of cells with lower DNA content", "value": "increased the proportion of cells with lower DNA content"}]}
